The record followed here is patent publication US20250214977A1, “STAT6 INHIBITORS AND USES THEREOF” (Kymera Therapeutics, Inc., priority 2024, published 2025).

This assay deals with Phosphorylation of STAT6 in human A549 cells. The assay can be described thus: Phosphorylated STAT6 (pSTAT6) flow cytometry assay in human A549 cells. The conditions noted are these: read-out: STAT6 IL4 pSTAT6 assay in A549 cells: Average IC50. It counts as cell-based. The source says:
Example 3. Phosphorylated STAT6 (pSTAT6) Flow Cytometry Assay in Human A549 Cells
Phosphorylation of STAT6 in human A549 cells was quantitatively measured using flow cytometry technology.
In the case of `COc1ccccc1-c1cc(C2=CCCN(C(=O)CCn3ccnn3)C2)c(F)c2[nH]c(C(=O)N3CCN(c4cccc5cncn45)CC3)cc12` [Example I-936], the IC50 is below 100 nM.

In the case of `COc1ccccc1-c1cc(C2=CCCN(C(=O)C(C)C)C2)c(F)c2[nH]c(C(=O)N(C)C)cc12` [Example I-837], the IC50 lay in the range of 100 to 1000 nM.

On to `COc1ccccc1-c1cc(C2=CCCN(C(=O)CCn3ccnn3)C2)c(F)c2[nH]c(C(=O)N3CCN(Cc4ccccc4)CC3)cc12` [Example I-1202], for which the IC50 is below 100 nM.

For `COc1cccnc1N1CCN(C(=O)c2cc3c(-c4cnccc4OC4CC4)cc(C4=CCCN(C(=O)CCn5ccnn5)C4)c(F)c3[nH]2)CC1` [Example I-556], the IC50 was below 100 nM.

Consider `CCn1ncc2c1CN(C(=O)c1cc(C3=CCCCC3)c3c(c1)cc(C1=CCCN(C(=O)CCn4ccnn4)C1)n3CC1CC1)C2` [Example I-765], for which the IC50 was below 100 nM.

Regarding `COc1cc(F)cnc1N1CCN(C(=O)c2cc3c(C4CC4)cc(C4=CCCN(C(=O)CCn5ccnn5)C4)c(F)c3[nH]2)CC1` [Example I-694], the IC50 was above 100000 nM.

For `CC(=O)N1CCC=C(c2cc(-c3ccccc3N(C)C)c3cc(C(=O)N(C)C)[nH]c3c2F)C1` [Example I-1093], the IC50 lay within 100 to 1000 nM.

As to `COc1ccncc1-c1cc(C2=CCCN(C(C)=O)C2)c(F)c2[nH]c(C(=O)N3CCN(c4ccccc4OC)CC3)cc12` [Example I-409], the IC50 is above 100000 nM.

Take `COc1ccncc1-c1cc(C2=CCCN(C(=O)CCn3ccnn3)C2)c(F)c2[nH]c(C(=O)N3CCN(c4nnccc4OC)CC3)cc12` [Example I-467]: the IC50 was below 100 nM.

With `CN(C)C(=O)c1cc2ccc(C3=CCCN(C(=O)C4Cc5ccccc5CN4C=O)C3)cc2[nH]1` (stereo not drawn) [Example I-822], the IC50 was in the range of 100 to 1000 nM.

With `COc1ccccc1-c1cc(C2=CCCN(C(=O)CCn3ccnn3)C2)c(F)c2[nH]c(C(=O)N3CCN(c4ncc(C#N)cc4OC)CC3)cc12` [Example I-940], the IC50 was below 100 nM.

As to `COc1cc(F)ccc1-c1cc(C2=CCCN(C(=O)CCn3ccnn3)C2)c(F)c2[nH]c(C(=O)N3CCN(c4ncc(F)cc4OC)CC3)cc12` [Example I-613], the IC50 was below 100 nM.

As for `COc1ccccc1-c1cc(C2=CCCN(C(=O)CCn3ccnn3)C2)c(F)c2[nH]c(C(=O)N3CCN(c4c(C)ccn5nccc45)CC3)cc12` [Example I-1019], the IC50 is below 100 nM.

For `COc1ccccc1-c1cc(C2=CCCN(C(=O)CCn3ccnn3)C2)c(F)c2[nH]c(C(=O)N3CCN(c4ccccc4Cl)CC3)cc12` [Example I-423], the IC50 was below 100 nM.

In the case of `COc1ccccc1-c1cc(C2=CCCN(C(=O)CCn3ccnn3)C2)c(F)c2[nH]c(C(=O)N3CCN(c4cc5ccccc5nc4O)CC3)cc12` [Example I-952], the IC50 was below 100 nM.

With `COc1ccccc1-c1cc(C2=CCCN(C(=O)CCn3ccnn3)C2)c(F)c2[nH]c(C(=O)N3CC4CN(c5ncccc5OC)CC4C3)cc12` (stereo not drawn) [Example I-1035], the IC50 lay in the range of 100 to 1000 nM.

Regarding `COc1c(F)cc(F)cc1-c1cc(C2=CCCN(C(=O)CCn3ccnn3)C2)c(F)c2[nH]c(C(=O)N3CCN(C4CC4)CC3)cc12` [Example I-603], the IC50 is below 100 nM.

Take `CCc1ccncc1-c1cc(C2=CCCN(C(=O)CCn3cccn3)C2)c(F)c2[nH]c(C(=O)N3CCN(c4ncc(F)cc4OC)CC3)cc12` [Example I-686]: the IC50 is below 100 nM.

Turning to `COc1cccc(F)c1-c1cc(C2=CCCN(C(C)=O)C2)c(F)c2cc(C(=O)N(C)C)oc12` [Example I-1105], the IC50 was in the range of 100 to 1000 nM.

Regarding `CC(=O)N1CCC=C(c2cc(-c3cccc4c3OCCO4)c3cc(C(=O)N(C)C)[nH]c3c2F)C1` [Example I-1095], the IC50 was below 100 nM.

With `COc1ccccc1-c1cc(C2=CCCN(C(=O)[C@H]3Cc4ccccc4CN3C=O)C2)cc2cc(C(=O)N(C)C)oc12` (single isomer, unassigned) [Example I-804], the IC50 lay within 100 to 1000 nM.

`COc1cc(F)cnc1N1CCN(C(=O)c2cc3c(C=CC(C)(C)O)cc(C4=CCCN(C(=O)CCn5ccnn5)C4)c(F)c3[nH]2)CC1` [Example I-1110]: the IC50 is below 100 nM.

As for `COc1cnccc1-c1cc(C2=CCCN(C(=O)CCn3ccnn3)C2)c(F)c2[nH]c(C(=O)N3CCN(c4ncc(C(F)(F)F)cc4OC)CC3)cc12` [Example I-435], the IC50 is below 100 nM.

Consider `CCc1cc(C)ncc1-c1cc(C2=CCCN(C(=O)CCn3cccn3)C2)c(F)c2[nH]c(C(=O)N3CCN(c4cc(C)ccc4OC)CC3)cc12` [Example I-515], for which the IC50 was below 100 nM.

Take `CCc1nc(C)ccc1-c1cc(C(=O)N2CCN(c3ncc(F)cc3OC)CC2)cc2cc(C3=CCCN(C(=O)CC(=O)O)C3)n(CC(C)C)c12` [Example I-800]: the IC50 is above 100000 nM.

With `COc1cc(F)cnc1N1CCN(C(=O)c2cc3c(-c4cccc5c4OCCCO5)cc(C4=CCCN(C(=O)CCn5ccnn5)C4)c(F)c3[nH]2)CC1` [Example I-678], the IC50 is below 100 nM.

Take `COc1c(F)cc(F)cc1-c1cc(C2=CCCN(C(=O)CCn3ccnn3)C2)c(F)c2[nH]c(C(=O)N3CCN(c4ncccc4OC4CC4)CC3)cc12` [Example I-597]: the IC50 was below 100 nM.

For `COc1ccccc1-c1cc(C2=CCCN(C(C)=O)C2)c(F)c2sc(C(=O)N(C)C)cc12` [Example I-552], the IC50 lay in the range of 100 to 1000 nM.

As to `CN(C)C(=O)c1cc2cc(C3=CCCN(C(=O)CCc4cccnn4)C3)ccc2o1` [Example I-820], the IC50 was in the range of 100 to 1000 nM.

For the compound “Methyl 5-(3-(5-(2-(dimethylcarbamoyl)benzofuran-5-yl)-1,2,3,6-tetrahydropyridine-1-carbonyl)-2-formyl-1,2,3,4-tetrahydroisoquinolin-5-yl)pent-4-ynoate [Example I-802]”, the IC50 is below 100 nM.

Turning to `COc1ccccc1-c1cc(C2=CCCN(C(=O)CCn3ccnn3)C2)c(F)c2[nH]c(C(=O)N3CC(Oc4cccnc4)C3)cc12` [Example I-992], the IC50 was below 100 nM.

As to `CN(C)C(=O)c1cc2c(F)c(C3=CCCN(C(=O)C4Cc5ccccc5CN4C=O)C3)ccc2o1` (stereo not drawn) [Example I-374, 4-fluoro-5-(1-(2-formyl-1,2,3,4-tetrahydroisoquinoline-3-carbonyl)-1,2,5,6-tetrahydropyridin-3-yl)-N,N-dimethylbenzofuran-2-carboxamide], the IC50 is below 100 nM.

Consider `CNc1ccc(-c2cc(C3=CCCN(C(=O)CCn4ccnn4)C3)cc3[nH]c(C(=O)N(C)C)cc23)c(Cl)c1` [Example I-1050], for which the IC50 was below 100 nM.

Turning to `COc1ccccc1-c1cc(C2=CCCN(C(=O)CCn3ccnn3)C2)c(F)c2[nH]c(C(=O)N3CCc4cc(C(F)(F)F)ccc4C3)cc12` [Example I-977], the IC50 was below 100 nM.

Turning to `Cc1cc(CNc2cc(C3=CCCN(C(=O)CCn4ccnn4)C3)cc3cc(C(=O)N(C)C)oc23)n(C)n1` [Example I-894], the IC50 is 100 to 1000 nM.

As for `CN(C)C(=O)c1cc2cc(C3=CCCN(C(=O)CCn4ccnn4)C3)cc(-c3cc(C(F)(F)F)nn3C)c2o1` [Example I-855], the IC50 is below 100 nM.

For the compound `COc1cnccc1-c1cc(C2=CCCN(C(C)=O)C2)c(F)c2sc(C(=O)N(C)C)cc12` [Example I-554], the IC50 was 100 to 1000 nM.

Turning to `CCc1cn[nH]c1N1CCN(C(=O)c2cc3c(-c4cnccc4OC)cc(C4=CCCN(C(=O)CCn5ccnn5)C4)c(F)c3[nH]2)CC1` [Example I-540], the IC50 was below 100 nM.

Take `CCOC(=O)c1ccc(N2CCN(C(=O)c3cc4c(-c5ccccc5OC)cc(C5=CCCN(C(=O)CCn6ccnn6)C5)c(F)c4[nH]3)CC2)cc1` [Example I-931]: the IC50 was in the range of 100 to 1000 nM.

On to `COc1cc(F)cnc1N1CCN(C(=O)c2cc3c(-c4cncc(-c5ccccc5)c4)cc(C4=CCCN(C(=O)CCn5ccnn5)C4)c(F)c3[nH]2)CC1` [Example I-647], for which the IC50 is below 100 nM.

Regarding `CCc1cnc(N2CCN(C(=O)c3cc4c(-c5cnccc5OC)cc(C5=CCCN(C(=O)CCn6ccnn6)C5)c(F)c4[nH]3)CC2)c(OC)c1` [Example I-453], the IC50 is below 100 nM.

On to `COc1ccccc1-c1cc(C2=CCCN(C(=O)CCn3ccnn3)C2)c(F)c2[nH]c(C(=O)N3CCN(c4ncccn4)C[C@@H]3C)cc12` [Example I-995], for which the IC50 is below 100 nM.

Take `COc1cc(F)cnc1N1CCN(C(=O)c2cc3c(-c4ccnc(N5CCN(C)CC5)c4)cc(C4=CCCN(C(=O)CCn5ccnn5)C4)c(F)c3[nH]2)CC1` [Example I-617]: the IC50 was below 100 nM.

Turning to `COc1ccccc1-c1cc(C2=CCCN(C(=O)CCn3ccnn3)C2)c(F)c2[nH]c(C(=O)N3CCN(c4nccc5ccccc45)CC3)cc12` [Example I-363], the IC50 is below 100 nM.

Take `COc1cc(F)cnc1N1CCN(C(=O)c2cc3c(C4=CCC(C#N)CC4)cc(C4=CCCN(C(=O)CCn5ccnn5)C4)c(F)c3[nH]2)CC1` (stereo not drawn) [Example I-1141]: the IC50 was below 100 nM.

Consider `CCc1ccncc1-c1cc(C2=CCCN(C(=O)CCn3ccnn3)C2)c(F)c2[nH]c(C(=O)N3CCN(c4cccc(OC)n4)CC3)cc12` [Example I-480], for which the IC50 is below 100 nM.

As to `COc1ccccc1-c1cc(C2=CCCN(C(=O)CCn3ccnn3)C2)c(F)c2[nH]c(C(=O)N3CCN(c4nccc5cnccc45)CC3)cc12` [Example I-362], the IC50 was below 100 nM.

For `COc1cnccc1-c1cc(C2=CCCN(C(=O)CCn3ccnn3)C2)c(F)c2[nH]c(C(=O)N3CCN(c4ncc(Cl)cc4OC)CC3)cc12` [Example I-457], the IC50 was below 100 nM.
